Assay results taken from patent US6919306B2, “Method of skin care” (Yaizu Suisankagaku Industry Co. Ltd., priority 1999, dated 2005).

Assays:
[1] = Heat treatment stability (coloration or decomposition); format: physicochemical; conditions: pH of 2 to 8 at 100° C. for 1 hour
From the text: In the present invention, as a carrier for the skin care agent, foods such as confectioneries, powdered soups, dairy products and beverages, may, for example, be mentioned. As such foods, specifically, gum, candies, tabletted confectioneries, chocolate, jelly, cookies, snacks, corn potage soup, consomme soup, milk, pudding, yogurt, ice cream, lactic acid beverages, alcohol beverages, vitamin beverages, mineral beverages, coffee beverages, near water, nutrition drinks, and the like, may be mentioned.

Wister rats (SPF) = assay: Acute toxic test of NAG; format: in vivo; conditions: rat
Method: To each of five males and five females of Wister rats (SPF), NAG was given by a single oral administration in an amount of 5,000 mg per kg of body weight. After the administration, these rats were bred for 14 days and observed, and no death was recognized. It was also recognized that the 50% lethal dose (LD50) to the rats was at least 5,000 mg per kg of body weight.

[2] = tested on: skin conditions of adult female volunteers; assay: Questionnaire on skin conditions after tablet ingestion; format: in vivo, human; conditions: NAG 1.2 g per day oral tablets, 60 days
Method: 20 adult female volunteers of age ranging from 25 to 45 years old were classified into two groups i.e. a test group and a control group. They were asked to take tablets prepared similarly as in Example 1 as described below at a rate of […], twice a day (NAG ingestion amount per day: 1.2 g) together with water, provided that the tablets for the control group were prepared by using lactose as a placebo instead of NAG. The test period was 60 days, and after the completion of test, they were questioned about skin conditions and the like by questionnaires. No particular restriction was made with respect to diet, makeup and the like during the test period.

[3] = tested on: moisture content of epidermis; assay: Skin moisture content by Corneometer CM825; format: in vivo, human; conditions: for Moisture content, Left upper arm / Moisture content, Poll / Moisture content, Below left eye: NAG 1,000 mg/day oral
Method: (§1) To 22 females usually having a tendency of xeroderma and rough skin (average age: 25.5±10.7), a double blind long-term ingestion study was carried out in the following manners provided that a […] were given to a control group.
(§2) NAG-containing tablets-administered group (NAG group, n=11): Tablets prepared similarly as in Example 1 as described below (NAG amount: 200 mg/tablet), were ingested at a rate of 5 tablets/day (NAG 1,000 mg/day, as a daily dose).
(§3) The ingestion period was 8 weeks in each group. The inspection was in principle carried out just before the start of ingestion, 4 weeks after the start of ingestion, and just before the completion of ingestion (8 weeks after the start of ingestion).
The moisture content was measured by using Corneometer CM825 (manufactured by Courage+Khazaka Electronic Gmbh). This apparatus measures the moisture content of epidermis by measuring the electrostatic capacity via corneal layer, and is known to be less in error as compared with a conventional impedance method or infrared spectrophotometric method.
(§4) Measurement sites were 1 cm below the left eye, medial part of left upper arm (3 cm above the elbow), and poll (3 cm below spinous process of neck). With respect to the oil and fat content, since most subjects were scored at 0 at the left upper arm and the poll, only the site below the left eye was measured from the 2nd inspection.
(§5) In order to keep the environments for the measurements as equal as possible, a room having its internal conditions adjusted to be constant was prepared before the measurements (room temperature: 18 to 20° C., humidity: 45 to 60%), and the subjects were asked to keep in rest in this room for at least 30 minutes. Further, with respect to the makeup at the measurement site, it was in principle prohibited to put on makeup from 60 minutes before the inspection.

skin surface acidity = assay: Skin acidity (pH) by PH 900; format: in vivo, human; conditions: NAG 1,000 mg/day oral
Method: as §1, §2, §3
The acidity was measured by using PH 900 (manufactured by Courage+Khazaka Electronic Gmbh). In use of this apparatus, an electrode is contacted to a skin surface through an ion-permeable membrane neighboring to a glass membrane and the acidity can be measured without electrochemical invasion. In this connection, the optimum pH of female's skin is about 5.5.
as §4, §5

CC(=O)N[C@H]1C(O)O[C@H](CO)[C@@H](O)[C@@H]1O (some centres unmarked) [NAG, N-acetylglucosamine]
coloration or decomposition on heat treatment [1]: not to show coloration or decomposition | 50% lethal dose (LD50) (Wister rats (SPF); both, Wister, in vivo, po, 14 days): at least 5,000 mg per kg of body weight | safety on oral administration (Wister rats (SPF); orally administered 5 g per kg of body weight): safety is confirmed | skin-beautification effect ([2]; versus placebo region): recognized | Fine wrinkles decreased (number of persons) ([2]; test region, placebo 1): 5 | Skin conditions worsened as a whole (number of persons) ([2]; test region, placebo 1): 0 | Feel moistness in skin (number of persons) ([2]; test region, placebo 2): 7 | Feel tension in skin (number of persons) ([2]; test region, placebo 2): 6 | Skin conditions improved as a whole (number of persons) ([2]; test region, placebo 2): 8 | No change (including unidentified) (number of persons) ([2]; test region, placebo 5): 2 | Moisture content, Left upper arm ([3]; after 4 weeks): 38.7 ± 5.8 | Moisture content, Poll ([3]; after 4 weeks): 51.9 ± 5.4 | Moisture content, Below left eye ([3]; after 4 weeks, p < 0.05): 58.8 ± 14.2 | Moisture content, Left upper arm ([3]; after 8 weeks): 36.2 ± 6.8 | Moisture content, Poll ([3]; after 8 weeks): 52.1 ± 10.9 | Moisture content, Below left eye ([3]; after 8 weeks, p < 0.01): 56.2 ± 8.4 | Moisture content, Below left eye ([3]; before ingestion): 48.0 ± 8.8 | Moisture content, Left upper arm ([3]; before ingestion): 37.8 ± 7.8 | Moisture content, Poll ([3]; before ingestion): 51.3 ± 5.6 | moisture content at the site below the left eye, change ([3]; NAG group, 1,000 mg/day oral, 8 weeks): significant increase | Acidity (pH), Below left eye (skin surface acidity; after 4 weeks): 5.7 ± 0.5 pH | Acidity (pH), Left upper arm (skin surface acidity; after 4 weeks): 5.6 ± 0.3 pH | Acidity (pH), Poll (skin surface acidity; after 4 weeks): 5.4 ± 0.3 pH | Acidity (pH), Below left eye (skin surface acidity; after 8 weeks): 5.8 ± 0.4 pH | Acidity (pH), Left upper arm (skin surface acidity; after 8 weeks): 5.7 ± 0.4 pH | Acidity (pH), Poll (skin surface acidity; after 8 weeks): 5.3 ± 0.4 pH | Acidity (pH), Left upper arm (skin surface acidity; before ingestion): 5.5 ± 0.3 pH | Acidity (pH), Poll (skin surface acidity; before ingestion): 5.7 ± 1.1 pH | Acidity (pH), Below left eye (skin surface acidity; before ingestion, optimum pH about 5.5): 6.0 ± 1.0 pH
